Patent publication US9067932B2, “Pyrazolopyridine kinase inhibitors” (Vertex Pharmaceuticals Incorporated, priority 2010, dated 2015)
Like-named read-outs stand apart in the source and are kept apart here.

How the values were obtained:
Format in all cases: biochemical
PKC theta kinase = PKC theta kinase (Homo sapiens, UniProt Q04759); experiment: PKC theta coupled-enzyme (NADH consumption) kinase assay; details: 18 nM PKC theta, 240 μM ATP, 30° C., initial rate at 340 nm
Method: (§1) An assay buffer solution was prepared which consisted of 100 mM HEPES (pH 7.5), 10 mM MgCl2, 25 mM NaCl, 0.1 mM EDTA and 0.01% Brij. […] To 60 μL of this enzyme buffer, in a 384 well plate, was added 2 μL of VRT stock solution in DMSO. […] The enzyme reaction was initiated by the addition of 5 μL stock ATP solution prepared in assay buffer to a final assay concentration of 240 μM. Initial rate data was determined from the rate of change of absorbance at 340 nm (corresponding to stoichiometric consumption of NADH) using a Molecular Devices Spectramax plate reader (Sunnyvale, Calif.) over 15 mins at 30° C. For each Ki determination 12 data points covering the VRT concentration range of 0-20 μM were obtained in duplicate (DMSO stocks were prepared from an initial 10 mM VRT stock with subsequent 1:2 serial dilutions). Ki values were calculated from initial rate data by non-linear regression using the Prism software package (Prism 4.0a, Graphpad Software, San Diego, Calif.).

PKC alpha kinase = PKC alpha kinase (Homo sapiens, UniProt P17252); experiment: PKC alpha coupled-enzyme (NADH consumption) kinase assay; details: 4.5 nM PKC alpha, 130 μM ATP, 100 μM CaCl2, 30° C.
Method: An assay buffer solution was prepared which consisted of 100 mM HEPES (pH 7.5), 10 mM MgCl2, 25 mM NaCl, 0.1 mM EDTA, 100 μM CaCl2 and 0.01% Brij. An enzyme buffer containing reagents to final assay concentrations of 0.002% Triton X-100, 100 μg/mL Phosphatidylserine, 20 μg/mL Diacylglycerol, 360 μM NADH, 3 mM phosphoenolpyruvate, 70 μg/mL pyruvate kinase, 24 μg/mL lactate dehydrogenase, 2 mM DTT, 150 μM substrate peptide ([…] SEQ ID NO. 1) and 4.5 nM PKC alpha kinase was prepared in assay buffer. To 16 μL of this enzyme buffer, in a 384 well plate, was added 1 μL of VRT stock solution in DMSO. The mixture was allowed to equilibrate for 10 mins at 30° C. The enzyme reaction was initiated by the addition of 16 μL stock ATP solution prepared in assay buffer to a final assay concentration of 130 μM. Initial rate data was determined from the rate of change of absorbance at 340 nm (corresponding to stoichiometric consumption of NADH) using a Molecular Devices Spectramax plate reader (Sunnyvale, Calif.) over 15 mins at 30° C. For each Ki determination 12 data points covering the VRT concentration range of 0-20 μM were obtained in duplicate (DMSO stocks were prepared from an initial 10 mM VRT stock with subsequent 1:2 serial dilutions). Ki values were calculated from initial rate data by non-linear regression using the Prism software package (Prism 4.0a, Graphpad Software, San Diego, Calif.).

PKC delta kinase = PKC delta kinase (Homo sapiens, UniProt Q05655); experiment: PKC delta coupled-enzyme (NADH consumption) kinase assay; details: 46 nM PKC delta, 150 μM ATP, 30° C., initial rate at 340 nm
Method: as §1, with “To 16” for “To 60”, “added 1” for “added 2”, “of 16” for “of 5”, “of 150” for “of 240”

Sequence of PKC delta kinase (Q05655 whole entry): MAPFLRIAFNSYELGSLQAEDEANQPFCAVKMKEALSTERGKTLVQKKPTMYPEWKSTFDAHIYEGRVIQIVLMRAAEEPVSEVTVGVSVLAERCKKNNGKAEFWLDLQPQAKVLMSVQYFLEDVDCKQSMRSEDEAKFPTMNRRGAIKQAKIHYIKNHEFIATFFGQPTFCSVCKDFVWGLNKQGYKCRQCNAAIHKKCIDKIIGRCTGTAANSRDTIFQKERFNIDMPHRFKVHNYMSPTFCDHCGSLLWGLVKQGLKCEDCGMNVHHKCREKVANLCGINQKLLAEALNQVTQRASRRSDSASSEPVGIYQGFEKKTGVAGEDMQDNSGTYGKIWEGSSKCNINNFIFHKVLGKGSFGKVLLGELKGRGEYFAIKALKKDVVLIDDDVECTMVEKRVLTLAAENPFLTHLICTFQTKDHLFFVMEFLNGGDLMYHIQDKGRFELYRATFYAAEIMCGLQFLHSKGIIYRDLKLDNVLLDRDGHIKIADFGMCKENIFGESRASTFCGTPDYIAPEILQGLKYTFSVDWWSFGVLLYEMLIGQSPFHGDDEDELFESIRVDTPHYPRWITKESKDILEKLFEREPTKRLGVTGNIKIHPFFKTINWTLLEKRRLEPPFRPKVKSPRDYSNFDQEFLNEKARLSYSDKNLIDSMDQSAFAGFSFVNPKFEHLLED
Sequence of PKC theta kinase (Q04759 whole entry): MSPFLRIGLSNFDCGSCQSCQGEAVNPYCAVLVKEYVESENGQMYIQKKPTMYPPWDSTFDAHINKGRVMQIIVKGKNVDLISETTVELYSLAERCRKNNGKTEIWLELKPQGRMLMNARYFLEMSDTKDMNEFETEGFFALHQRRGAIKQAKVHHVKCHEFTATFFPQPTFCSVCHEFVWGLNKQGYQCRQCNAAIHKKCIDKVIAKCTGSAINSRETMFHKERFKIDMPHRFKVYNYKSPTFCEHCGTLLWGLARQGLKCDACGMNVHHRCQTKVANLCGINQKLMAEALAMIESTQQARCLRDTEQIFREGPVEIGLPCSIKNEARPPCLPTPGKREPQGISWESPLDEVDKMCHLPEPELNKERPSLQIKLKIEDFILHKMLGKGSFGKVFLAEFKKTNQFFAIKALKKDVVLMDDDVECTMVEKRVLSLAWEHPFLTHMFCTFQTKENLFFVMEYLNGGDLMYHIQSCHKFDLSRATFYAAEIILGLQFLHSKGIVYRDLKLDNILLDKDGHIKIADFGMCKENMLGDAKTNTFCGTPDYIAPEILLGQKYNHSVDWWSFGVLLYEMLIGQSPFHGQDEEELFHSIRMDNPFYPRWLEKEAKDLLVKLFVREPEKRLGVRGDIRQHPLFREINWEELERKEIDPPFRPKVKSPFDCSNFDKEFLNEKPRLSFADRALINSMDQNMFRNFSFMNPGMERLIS

| SMILES | Ki (PKC theta kinase; read-out: Ki PKC theta) [nM] | Ki (PKC alpha kinase; read-out: Ki PKC alpha) [nM] | Ki (PKC delta kinase) [nM] | Ki (PKC theta kinase; Ki PKC theta) [nM] | Ki (PKC alpha kinase; Ki PKC alpha) [nM] |
| --- | --- | --- | --- | --- | --- |
| CC[C@@H](O)[C@@H]1CN(c2nc(-c3n[nH]c4ncccc34)c(F)cc2F)CCN1 [Compound 8] | < 1 | < 2800 | < 50 | – | – |
| CC(C)(C)C(O)C1CN(c2nc(-c3n[nH]c4ncccc34)c(F)cc2Cl)CCN1 (stereo not shown) [Compound 26] | < 1 | < 500 | < 10 | – | – |
| OC(C1CC1)C1CN(c2nc(-c3n[nH]c4ncccc34)c(F)cc2F)CCN1 (stereo not shown) [Compound 29] | < 1 | < 500 | < 50 | – | – |
| CC(C)C(N)[C@H]1CCN(c2nc(-c3n[nH]c4ncccc34)c(F)cc2Cl)C1 (stereo partly shown) [Compound 24] | < 50 | > 1250 | < 500 | – | – |
| CC(C)[C@@](C)(O)[C@@H]1CN(c2nc(-c3n[nH]c4ncccc34)c(F)cc2CO)CCN1 [Compound 44] | < 1 | < 500 | < 10 | – | – |
| CC[C@H](O)[C@@H]1CN(c2nc(-c3n[nH]c4ncccc34)c(F)cc2F)CCN1 [Compound 25] | < 50 | > 1250 | < 500 | – | – |
| CC(O)(C1CC1)C1CN(c2nc(-c3n[nH]c4ncccc34)c(F)cc2F)CCN1 (stereo not shown) [Compound 4] | < 1 | > 1250 | < 500 | – | – |
| CC(C)[C@@](C)(O)C1CN(c2nc(-c3n[nH]c4ncccc34)c(C#N)cc2F)CCN1 (stereo partly shown) [Compound 35] | < 500 | – | – | – | – |
| CCC(C)(O)C1CN(c2nc(-c3n[nH]c4ncccc34)c(F)cc2F)CCN1 (stereo not shown) [Compound 6] | < 1 | < 2800 | < 50 | – | – |
| CC(C)(F)C(C)(O)C1CN(c2nc(-c3n[nH]c4ncccc34)c(F)cc2F)CCN1 (stereo not shown) [Compound 11] | < 1 | < 2800 | < 10 | – | – |
| CCC(O)C1CN(c2nc(-c3n[nH]c4ncccc34)c(F)cc2Cl)CCN1 (stereo not shown) [Compound 19] | < 1 | < 2800 | < 50 | – | – |
| CC(C)[C@@H](O)[C@@H]1CN(c2nc(-c3n[nH]c4ncccc34)c(F)cc2F)CCN1 [Compound 7] | < 1 | < 500 | < 50 | – | – |
| CC(O)(C1CC1)C1CN(c2nc(-c3n[nH]c4ncccc34)c(F)cc2F)CCN1 (stereo not shown) [Compound 5] | – | < 500 | < 50 | – | – |
| CC(C)C(N)[C@H]1CCN(c2nc(-c3n[nH]c4ncccc34)c(F)cc2F)C1 (stereo partly shown) [Compound 28] | < 1 | < 500 | < 50 | – | – |
| COCC(C)(O)C1CN(c2nc(-c3n[nH]c4ncccc34)c(F)cc2Cl)CCN1 (stereo not shown) [Compound 33] | < 50 | > 1250 | < 500 | – | – |
| CC(CO)[C@@](C)(O)[C@@H]1CN(c2nc(-c3n[nH]c4ncccc34)c(F)cc2Cl)CCN1 (stereo partly shown) [Compound 45] | < 500 | > 1250 | > 1250 | – | – |
| CC(O)(CC(F)(F)F)C1CN(c2nc(-c3n[nH]c4ncccc34)c(F)cc2F)CCN1 (stereo not shown) [Compound 15] | < 1 | < 500 | < 50 | – | – |
| CC(C)C(C)(O)C1CN(c2nc(C3N=Nc4ncccc43)c(F)cc2F)CCN1 (stereo not shown) [Compound 3] | – | – | < 500 | < 1 | < 2800 |
| CC(CO)[C@@](C)(O)[C@@H]1CN(c2nc(-c3n[nH]c4ncccc34)c(F)cc2F)CCN1 (stereo partly shown) [Compound 39] | < 50 | > 1250 | < 500 | – | – |
| CC(C)C(N)C1CCN(c2nc(-c3n[nH]c4ncccc34)c(F)cc2F)C1 (stereo not shown) [Compound 22] | < 50 | < 2800 | < 500 | – | – |
| CC(O)(C1CC1)C1CN(c2nc(-c3n[nH]c4ncccc34)c(F)cc2Cl)CCN1 (stereo not shown) [Compound 30] | < 1 | < 500 | < 10 | – | – |
| CC(C)[C@@](C)(O)[C@@H]1CN(c2nc(-c3n[nH]c4ncccc34)c(F)cc2C#N)CCN1 [Compound 10] | – | > 1250 | – | – | – |
| COCC(C)(O)C1CN(c2nc(-c3n[nH]c4ncccc34)c(F)cc2F)CCN1 (stereo not shown) [Compound 17] | – | < 2800 | – | – | – |
| CC(C)(F)C(C)(O)C1CN(c2nc(-c3n[nH]c4ncccc34)c(F)cc2F)CCN1 (stereo not shown) [Compound 12] | – | < 500 | < 50 | – | – |
